# pKi: −log10 of the molar value. Where two headings read alike, the source gives them in different places.
# Biological target: T1, hNPY1R (Homo sapiens, UniProt P25929)
# T1 construct: SK-N-MC cells endogenously expressing the NPY1R receptor; endogenous in cells; host or cells: SK-N-MC cells (crude membrane fractions)
# T1 sequence (P25929 1-384): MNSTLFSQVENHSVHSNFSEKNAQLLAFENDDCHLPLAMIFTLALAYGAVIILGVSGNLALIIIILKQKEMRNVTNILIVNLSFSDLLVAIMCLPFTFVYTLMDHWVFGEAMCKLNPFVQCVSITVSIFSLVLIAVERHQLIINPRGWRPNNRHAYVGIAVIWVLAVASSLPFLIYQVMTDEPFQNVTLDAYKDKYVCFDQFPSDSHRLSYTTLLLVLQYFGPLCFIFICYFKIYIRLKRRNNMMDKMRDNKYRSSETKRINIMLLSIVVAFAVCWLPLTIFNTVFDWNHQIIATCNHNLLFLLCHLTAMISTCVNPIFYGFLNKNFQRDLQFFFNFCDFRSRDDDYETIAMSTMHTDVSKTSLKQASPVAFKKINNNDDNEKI
# Assay: NPY1R binding assay: SK-N-MC membranes, [125I]-Peptide YY (human) competition
# Details: SK-N-MC membranes
# Method: Crude membrane fractions are prepared from SK-N-MC cells endogenously expressing the NPY1R receptor. The cells are grown to 85-100% confluence on standard tissue culture dishes in Eagle's Minimum Essential Medium supplemented with 10% dialyzed FBS. To prepare membranes, cells are scraped and collected in 1× Dulbecco's phosphate buffered saline and then pelleted at 1000 RPM's. The cell pellet is reconstituted in membrane preparation buffer (20 mM HEPES, 6 mM MgCl2 and 1 mM EGTA, protease inhibitor tablets, pH 7.4) and placed in a cell disruption vessel at 1000 PSI for 30 minutes on ice. The pressurized contents are then released and spun down at 1000 RPMs and the supernatant is collected and further centrifuged at 15,000 RPMs to pellet the membranes. The membrane pellet is resuspended in membrane preparation buffer, snap frozen and stored at −80° C. for later use.
# […] Assay contents are then filtered through unifilter GF/C microplates and washed with 9×400 μl of cold wash buffer (25 mM HEPES, 5 mM MgCl2, 1 mM CaCl2), 500 mM NaCl, 0.1% Tween-20, pH 7.4). Assay plates are read using a Top Count NXT and Ki values for compounds are determined using a GraphPad Prism 6 non-linear regression analysis.
# [1] = data obtained after 120 minutes at rt, [125I]-Peptide YY, read-out: hNPY.R binding Ki* ††
# [2] = data obtained after 60 minutes at 37° C., [125I]-Peptide YY 0.05 nM, read-out: hNPY1R binding Ki* †
pKi [1],Structure (SMILES),pKi [2]
> 8.00,"CCC(=O)NCCNC(=O)/N=C(/N)NCCC[C@@H](NC(=O)C(c1ccccc1)c1cccc(OCCCCNC(=O)[C@@H](CCCNC(=N)N)NC(=O)CCNC(=O)CN2CCN(CC(=O)O)CCN(CC(=O)O)CCN(CC(=O)O)CC2)c1)C(=O)NCc1ccc(O)cc1 (single isomer, unassigned) [Compound 141B]",–
> 8.00,"CCC(=O)NCCNC(=O)/N=C(/N)NCCC[C@@H](NC(=O)C(c1ccccc1)c1cccc(OCCCCNC(=O)[C@H](N)CCCCNC(=O)c2ccc(CNC(=O)CN3CCN(CC(=O)O)CCN(CC(=O)O)CCN(CC(=O)O)CC3)cc2)c1)C(=O)NCc1ccc(O)cc1 (single isomer, unassigned) [Compound 142A]",–
> 8.00,"CCC(=O)NCCNC(=O)/N=C(/N)NCCC[C@@H](NC(=O)C(c1ccccc1)c1cccc(OCCCCNc2c(NCCNC(=O)[C@@H](CN)NC(=O)CN3CCN(CC(=O)O)CCN(CC(=O)O)CCN(CC(=O)O)CC3)c(=O)c2=O)c1)C(=O)NCc1ccc(O)cc1 (stereo in doubt) [Compound 115B-In, Indium (III) 2,2′,2″-(10-(2-(((R)-3-amino-1-((2-((2-((4-(3-((R,Z)-9-amino-4-((4-hydroxybenzyl)carbamoyl)-2,11,16-trioxo-1-phenyl-3,8,10,12,15-pentaazaoctadec-9-en-1-yl)phenoxy)butyl)amino)-3,4-dioxocyclobut-1-en-1-yl)amino)ethyl)amino)-1-oxopropan-2-yl)amino)-2-oxoethyl)-1,4,7,10-tetraaza-cyclododecane-1,4,7-triyl)triacetate]",–
> 8.00,"CCC(=O)NCCNC(=O)/N=C(/N)NCCC[C@@H](NC(=O)C(c1ccccc1)c1cccc(OCCCCNC(=O)[C@@H](Cc2ccc3ccccc3c2)NC(=O)CCNC(=O)CN2CCN(CC(=O)O)CCN(CC(=O)O)CCN(CC(=O)O)CC2)c1)C(=O)NCc1ccc(O)cc1 (stereo partly drawn) [Compound 150, 2,2′,2″-(10-(2-((3-(((2R)-1-((4-(3-((4R,Z)-9-amino-4-((4-hydroxybenzyl)carbamoyl)-2,11,16-trioxo-1-phenyl-3,8,10,12,15-pentaazaoctadec-9-en-1-yl)phenoxy)butyl)amino)-3-(naphthalen-2-yl)-1-oxopropan-2-yl)amino)-3-oxopropyl)amino)-2-oxoethyl)-1,4,7,10-tetraazacyclododecane-1,4,7-triyl)triacetic acid]",–
> 8.00,"CCC(=O)NCCNC(=O)/N=C(/N)NCCC[C@@H](NC(=O)C(c1ccccc1)c1cccc(OCCCCNc2c(NCCNC(=O)[C@@H](CN)NC(=O)CN3CCN(CC(=O)O)CCN(CC(=O)O)CCN(CC(=O)O)CC3)c(=O)c2=O)c1)C(=O)NCc1ccc(O)cc1 (single isomer, unassigned) [Compound 115A]",–
> 8.00,"CCNC(=O)/N=C(/N)NCCC[C@@H](NC(=O)C(c1ccccc1)c1cccc(OCCCCNC(=O)[C@@H](Cc2ccc(-c3ccccc3)cc2)NC(=O)[C@@H](CN)NC(=O)CN2CCN(CC(=O)O)CCN(CC(=O)O)CCN(CC(=O)O)CC2)c1)C(=O)NCc1ccc(O)cc1 (single isomer, unassigned) [Compound 148B]",–

# The next lines start with the compound.
Structure (SMILES),pKi [1],pKi [2]
"CCC(=O)NCCNC(=O)/N=C(/N)NCCC[C@@H](NC(=O)C(c1ccccc1)c1ccc(NCCCNC(=O)CCCCCNC(=O)CN2CCN(CC(=O)O)CCN(CC(=O)O)CCN(CC(=O)O)CC2)cc1)C(=O)NCc1ccc(O)cc1 (single isomer, unassigned) [Compound 154]",> 8.00,–
"CCC(=O)NCCNC(=O)/N=C(/N)NCCC[C@@H](NC(=O)C(c1ccccc1)c1cccc(OCCCCNC(=O)[C@H](N)CCCCNC(=O)CN2CCN(CC(=O)O)CCN(CC(=O)O)CCN(CC(=O)O)CC2)c1)C(=O)NCc1ccc(O)cc1 (single isomer, unassigned) [Compound 109A]",–,> 8.00
"CCC(=O)NCCNC(=O)/N=C(/N)NCCC[C@@H](NC(=O)C(c1ccccc1)c1ccc(NCCCNc2c(NCCNC(=O)CN3CCN(CC(=O)O)CCN(CC(=O)O)CCN(CC(=O)O)CC3)c(=O)c2=O)cc1)C(=O)NCc1ccc(O)cc1 (single isomer, unassigned) [Compound 124B]",> 8.00,> 8.00
"CCC(=O)NCCNC(=O)/N=C(/N)NCCC[C@@H](NC(=O)C(c1ccccc1)c1ccc(NCCCNC(=O)[C@H](N)CCCNC(=O)CN2CCN(CC(=O)O)CCN(CC(=O)O)CCN(CC(=O)O)CC2)cc1)C(=O)NCc1ccc(O)cc1 (single isomer, unassigned) [Compound 135A]",> 8.00,–
"CCC(=O)NCCNC(=O)/N=C(/N)NCCC[C@@H](NC(=O)C(c1ccccc1)c1cccc(OCCCCNC(=O)[C@H](N)CCCCNC(=O)CN2CCN(CC(=O)O)CCN(CC(=O)O)CCN(CC(=O)O)CC2)c1)C(=O)NCc1ccc(O)cc1 (single isomer, unassigned) [Compound 109B]",–,> 8.00
"CCC(=O)NCCNC(=O)/N=C(/N)NCCC[C@@H](NC(=O)C(c1ccccc1)c1ccc(NCCCNC(=O)[C@H](N)CCCCNC(=O)CN2CCN(CC(=O)O)CCN(CC(=O)O)CCN(CC(=O)O)CC2)cc1)C(=O)NCc1ccc(O)cc1 (single isomer, unassigned) [Compound 132A]",> 8.00,–
"CCC(=O)NCCNC(=O)/N=C(/N)NCCC[C@@H](NC(=O)C(c1ccccc1)c1cccc(OCCCCNC(=O)[C@H](CS(=O)(=O)O)NC(=O)CN2CCN(CC(=O)O)CCN(CC(=O)O)CCN(CC(=O)O)CC2)c1)C(=O)NCc1ccc(O)cc1 (single isomer, unassigned) [Compound 107A]",–,7.00 to 8.00
"CCCCCCCCCCCCCCCC(=O)N[C@@H](CCC(=O)N[C@@H](CCCCNC(=O)CN1CCN(CC(=O)O)CCN(CC(=O)O)CCN(CC(=O)O)CC1)C(=O)NCCCCOc1cccc(C(C(=O)N[C@H](CCCN/C(N)=N\C(=O)NCCNC(=O)CC)C(=O)NCc2ccc(O)cc2)c2ccccc2)c1)C(=O)O (stereo partly drawn) [Compound 122, (2S)-4-{[(1S)-1-({4-[3-({[(1R)-4-{[(Z)-amino({[(2-propanamidoethyl)-carbamoyl]imino})methyl]amino}-1-{[(4-hydroxyphenyl)methyl]carbamoyl}butyl]-carbamoyl}(phenyl)methyl)phenoxy]butyl}carbamoyl)-5-{2-[4,7,10-tris(carboxymethyl)-1,4,7,10-tetraazacyclododecan-1-yl]acetamido}pentyl]carbamoyl}-2-hexadecanamidobutanoic acid]",> 8.00,–
"CCC(=O)NCCNC(=O)/N=C(/N)NCCC[C@@H](NC(=O)C(c1ccccc1)c1cccc(NCCCNc2c(NCCNC(=O)CN3CCN(CC(=O)O)CCN(CC(=O)O)CCN(CC(=O)O)CC3)c(=O)c2=O)c1)C(=O)NCc1ccc(O)cc1 (single isomer, unassigned) [Compound 120B]",> 8.00,–
"CCC(=O)NCCNC(=O)/N=C(/N)NCCC[C@@H](NC(=O)C(c1ccccc1)c1ccc(NCCNC(=O)[C@H](N)CCCNC(=O)CN2CCN(CC(=O)O)CCN(CC(=O)O)CCN(CC(=O)O)CC2)cc1)C(=O)NCc1ccc(O)cc1 (single isomer, unassigned) [Compound 143A]",> 8.00,–
"CCC(=O)NCCNC(=O)/N=C(/N)NCCC[C@@H](NC(=O)C(c1ccccc1)c1cccc(OCCCCNC(=O)NNC(=O)CCNC(=O)CN2CCN(CC(=O)O)CCN(CC(=O)O)CCN(CC(=O)O)CC2)c1)C(=O)NCc1c(F)cc(O)cc1F (single isomer, unassigned) [Compound 166]",> 8.00,–
"CCC(=O)NCCNC(=O)/N=C(/N)NCCC[C@@H](NC(=O)C(c1ccccc1)c1cccc(OCCCCNC(=O)NOCCNC(=O)CN2CCN(CC(=O)O)CCN(CC(=O)O)CCN(CC(=O)O)CC2)c1)C(=O)NCc1c(F)cc(O)cc1F (single isomer, unassigned) [Compound 163A]",> 8.00,–
